Data from patent US20160158317A1, “Antimicrobial Peptide Variants and Polynucleotides Encoding Same” (Adenium Biotech A/S, priority 2010, published 2016).
Where a SMILES comes first, the peptide text is derived from it. Bridges are numbered along the chain shown (N, C = ends).

Assay: Determination of the protein binding (90% serum, 30 kDa filter, HPLC)
Assay type: in vitro ADME
Details: serum
Procedure: Protein binding assays were performed as follows. The purified peptides were mixed with 90% serum and centrifuged through a 30 kDa filter. The ultra-filtrate and the non filtrated serum samples were quantified by HPLC measurements and the protein binding was subsequently calculated.

SMILES | fraction unbound
CC(C)[C@@H]1NC(=O)CNC(=O)[C@H](CC(N)=O)NC(=O)[C@H](CCCNC(=N)N)NC(=O)[C@H](Cc2ccc(O)cc2)NC(=O)[C@H](C(C)C)NC(=O)[C@@H]2CSSC[C@H](NC(=O)[C@H](C(C)C)NC(=O)[C@H](CCCNC(=N)N)NC1=O)C(=O)N[C@@H](Cc1c[nH]cn1)C(=O)N[C@@H](CCCNC(=N)N)C(=O)N[C@@H](Cc1c[nH]cn1)C(=O)N[C@H](C(=O)N[C@@H](CC(N)=O)C(=O)O)CSSC[C@H](NC(=O)[C@H](Cc1ccccc1)NC(=O)[C@@H](N)CCCNC(=N)N)C(=O)N[C@@H](Cc1c[nH]c3ccccc13)C(=O)N[C@@H](CC(N)=O)C(=O)N[C@@H](C(C)C)C(=O)N2 [compound 359] (H-RFCWNVCVYRNGVRVCHRHCN-OH; disulfide 3-20, 7-16 (inferred); N-terminus and C-terminus assumed) | 0.2
CC(C)[C@@H]1NC(=O)[C@H](CCCNC(=N)N)NC(=O)[C@H](C)NC(=O)CNC(=O)[C@H](CC(N)=O)NC(=O)[C@H](CCCNC(=N)N)NC(=O)[C@H](CCCCN)NC(=O)[C@H](C(C)C)NC(=O)[C@@H]2CSSC[C@H](NC1=O)C(=O)N[C@@H](Cc1ccc(O)cc1)C(=O)N[C@@H](CCCNC(=N)N)C(=O)N[C@@H](CCCNC(=N)N)C(=O)N[C@H](C(=O)N[C@@H](CC(N)=O)C(=O)O)CSSC[C@H](NC(=O)[C@H](Cc1ccccc1)NC(=O)CN)C(=O)N[C@@H](C)C(=O)N[C@@H](Cc1c[nH]cn1)C(=O)N[C@@H](C(C)C)C(=O)N2 [compound 362] (H-GFCAHVCVKRNGARVCYRRCN-OH; disulfide 3-20, 7-16 (inferred); N-terminus and C-terminus assumed) | 0.24
CC(C)[C@@H]1NC(=O)CNC(=O)[C@H](CC(N)=O)NC(=O)[C@H](CCCNC(=N)N)NC(=O)[C@H](CCCCN)NC(=O)[C@H](C)NC(=O)[C@@H]2CSSC[C@H](NC(=O)[C@H](C(C)C)NC(=O)[C@H](CCCNC(=N)N)NC1=O)C(=O)N[C@@H](Cc1ccc(O)cc1)C(=O)N[C@@H](CCCNC(=N)N)C(=O)N[C@@H](CCCNC(=N)N)C(=O)N[C@H](C(=O)N[C@@H](CC(N)=O)C(=O)O)CSSC[C@H](NC(=O)[C@H](Cc1ccccc1)NC(=O)CN)C(=O)N[C@@H](C)C(=O)N[C@@H](CCCNC(=N)N)C(=O)N[C@@H](C(C)C)C(=O)N2 [compound 363] (H-GFCARVCAKRNGVRVCYRRCN-OH; disulfide 3-20, 7-16 (inferred); N-terminus and C-terminus assumed) | 0.2
CC(C)[C@@H]1NC(=O)CNC(=O)[C@H](CC(N)=O)NC(=O)[C@H](CCCNC(=N)N)NC(=O)[C@H](CCCNC(=N)N)NC(=O)[C@H](C(C)C)NC(=O)[C@@H]2CSSC[C@H](NC(=O)[C@H](C(C)C)NC(=O)[C@H](CCCNC(=N)N)NC1=O)C(=O)N[C@@H](Cc1ccc(O)cc1)C(=O)N[C@@H](CCCNC(=N)N)C(=O)N[C@@H](CCCNC(=N)N)C(=O)N[C@H](C(=O)N[C@@H](CC(N)=O)C(=O)O)CSSC[C@H](NC(=O)[C@H](Cc1ccccc1)NC(=O)CN)C(=O)N[C@@H](Cc1ccccc1)C(=O)N[C@@H](CCCNC(=N)N)C(=O)N[C@@H](CO)C(=O)N2 [compound 377] (H-GFCFRSCVRRNGVRVCYRRCN-OH; disulfide 3-20, 7-16 (inferred); N-terminus and C-terminus assumed) | 0.35
CC(C)[C@@H]1NC(=O)CNC(=O)[C@H](CC(N)=O)NC(=O)[C@H](CCCNC(=N)N)NC(=O)[C@H](CCCCN)NC(=O)[C@H](C(C)C)NC(=O)[C@@H]2CSSC[C@H](NC(=O)[C@H](CCCCN)NC(=O)[C@H](CCCNC(=N)N)NC1=O)C(=O)N[C@@H](Cc1ccc(O)cc1)C(=O)N[C@@H](CCCNC(=N)N)C(=O)N[C@@H](CCCNC(=N)N)C(=O)N[C@H](C(=O)N[C@@H](CC(N)=O)C(=O)O)CSSC[C@H](NC(=O)[C@H](Cc1ccccc1)NC(=O)CN)C(=O)N[C@@H](Cc1ccccc1)C(=O)N[C@@H](CCCNC(=N)N)C(=O)N[C@@H](C(C)C)C(=O)N2 [compound 381] (H-GFCFRVCVKRNGVRKCYRRCN-OH; disulfide 3-20, 7-16 (inferred); N-terminus and C-terminus assumed) | 0.02
CC(C)[C@@H]1NC(=O)[C@@H]2CSSC[C@H](NC(=O)[C@H](C)NC(=O)[C@H](CCCNC(=N)N)NC(=O)[C@H](CCCCN)NC(=O)CNC(=O)[C@H](CC(N)=O)NC(=O)[C@H](CCCNC(=N)N)NC(=O)[C@H](Cc3ccc(O)cc3)NC1=O)C(=O)N[C@@H](Cc1ccc(O)cc1)C(=O)N[C@@H](CCCNC(=N)N)C(=O)N[C@@H](CCCNC(=N)N)C(=O)N[C@H](C(=O)N[C@@H](CC(N)=O)C(=O)O)CSSC[C@H](NC(=O)[C@H](Cc1ccccc1)NC(=O)CN)C(=O)NCC(=O)N[C@@H](CCCNC(=N)N)C(=O)N[C@@H](C(C)C)C(=O)N2 [compound 386] (H-GFCGRVCVYRNGKRACYRRCN-OH; disulfide 3-20, 7-16 (inferred); N-terminus and C-terminus assumed) | 0.19
CC(C)[C@@H]1NC(=O)[C@@H]2CSSC[C@H](NC(=O)[C@H](CO)NC(=O)[C@H](CCCNC(=N)N)NC(=O)[C@H](CCCCN)NC(=O)CNC(=O)[C@H](CC(N)=O)NC(=O)[C@H](CCCCN)NC(=O)[C@H](Cc3ccc(O)cc3)NC1=O)C(=O)N[C@@H](Cc1ccc(O)cc1)C(=O)N[C@@H](CCCNC(=N)N)C(=O)N[C@@H](CCCNC(=N)N)C(=O)N[C@H](C(=O)N[C@@H](CC(N)=O)C(=O)O)CSSC[C@H](NC(=O)[C@H](Cc1ccccc1)NC(=O)CN)C(=O)N[C@@H](Cc1c[nH]c3ccccc13)C(=O)N[C@@H](Cc1c[nH]cn1)C(=O)N[C@@H](C(C)C)C(=O)N2 [compound 390] (H-GFCWHVCVYKNGKRSCYRRCN-OH; disulfide 3-20, 7-16 (inferred); N-terminus and C-terminus assumed) | 0.13
CC(C)[C@@H]1NC(=O)[C@H](Cc2c[nH]cn2)NC(=O)[C@H](Cc2c[nH]c3ccccc23)NC(=O)[C@@H](NC(=O)[C@H](Cc2ccccc2)NC(=O)CN)CSSC[C@@H](C(=O)N[C@@H](CC(N)=O)C(=O)O)NC(=O)[C@H](CCCNC(=N)N)NC(=O)[C@H](CCCNC(=N)N)NC(=O)[C@H](Cc2ccc(O)cc2)NC(=O)[C@@H]2CSSC[C@H](NC1=O)C(=O)N[C@@H](C)C(=O)N[C@@H](CCCNC(=N)N)C(=O)N[C@@H](CCCNC(=N)N)C(=O)N[C@@H](CC(N)=O)C(=O)NCC(=O)N[C@@H](C)C(=O)N[C@@H](CCCNC(=N)N)C(=O)N[C@@H](C(C)C)C(=O)N2 [compound 394] (H-GFCWHVCARRNGARVCYRRCN-OH; disulfide 3-20, 7-16 (inferred); N-terminus and C-terminus assumed) | 0.2
CC(C)C[C@@H]1NC(=O)CNC(=O)[C@H](CC(N)=O)NC(=O)[C@H](CCCNC(=N)N)NC(=O)[C@H](CCCCN)NC(=O)[C@H](CO)NC(=O)[C@@H]2CSSC[C@H](NC(=O)[C@H](C(C)C)NC(=O)[C@H](CCCNC(=N)N)NC1=O)C(=O)N[C@@H](Cc1ccc(O)cc1)C(=O)N[C@@H](CCCNC(=N)N)C(=O)N[C@@H](CCCNC(=N)N)C(=O)N[C@H](C(=O)N[C@@H](CC(N)=O)C(=O)O)CSSC[C@H](NC(=O)[C@H](Cc1ccccc1)NC(=O)CN)C(=O)N[C@@H](Cc1c[nH]c3ccccc13)C(=O)N[C@@H](Cc1c[nH]cn1)C(=O)N[C@@H](C(C)C)C(=O)N2 [compound 396] (H-GFCWHVCSKRNGLRVCYRRCN-OH; disulfide 3-20, 7-16 (inferred); N-terminus and C-terminus assumed) | 0.08
CC(C)[C@@H]1NC(=O)CNC(=O)[C@H](CC(N)=O)NC(=O)[C@H](CCCNC(=N)N)NC(=O)[C@H](CCCNC(=N)N)NC(=O)[C@H](C)NC(=O)[C@@H]2CSSC[C@H](NC(=O)[C@H](C(C)C)NC(=O)[C@H](CCCNC(=N)N)NC1=O)C(=O)N[C@@H](Cc1ccc(O)cc1)C(=O)N[C@@H](CCCNC(=N)N)C(=O)N[C@@H](CCCNC(=N)N)C(=O)N[C@H](C(=O)N[C@@H](CC(N)=O)C(=O)O)CSSC[C@H](NC(=O)[C@H](Cc1ccccc1)NC(=O)CN)C(=O)N[C@@H](Cc1c[nH]c3ccccc13)C(=O)N[C@@H](CC(N)=O)C(=O)N[C@@H](C)C(=O)N2 [compound 407] (H-GFCWNACARRNGVRVCYRRCN-OH; disulfide 3-20, 7-16 (inferred); N-terminus and C-terminus assumed) | 0.12
CC(C)[C@@H]1NC(=O)[C@H](CC(N)=O)NC(=O)[C@H](Cc2c[nH]c3ccccc23)NC(=O)[C@@H](NC(=O)[C@H](Cc2ccccc2)NC(=O)CN)CSSC[C@@H](C(=O)N[C@@H](CC(N)=O)C(=O)O)NC(=O)[C@H](CCCNC(=N)N)NC(=O)[C@H](CCCNC(=N)N)NC(=O)[C@H](Cc2ccc(O)cc2)NC(=O)[C@@H]2CSSC[C@H](NC1=O)C(=O)N[C@@H](C)C(=O)N[C@@H](Cc1ccc(O)cc1)C(=O)N[C@@H](CCCNC(=N)N)C(=O)N[C@@H](CC(N)=O)C(=O)NCC(=O)N[C@@H](CCCCN)C(=O)N[C@@H](CCCNC(=N)N)C(=O)N[C@@H](C)C(=O)N2 [compound 411] (H-GFCWNVCAYRNGKRACYRRCN-OH; disulfide 3-20, 7-16 (inferred); N-terminus and C-terminus assumed) | 0.14
CC(C)[C@@H]1NC(=O)[C@H](CCCNC(=N)N)NC(=O)[C@H](CCCCN)NC(=O)CNC(=O)[C@H](CC(N)=O)NC(=O)[C@H](CCCNC(=N)N)NC(=O)[C@H](Cc2ccc(O)cc2)NC(=O)[C@H](C)NC(=O)[C@@H]2CSSC[C@H](NC1=O)C(=O)N[C@@H](Cc1ccc(O)cc1)C(=O)N[C@@H](CCCNC(=N)N)C(=O)N[C@@H](CCCNC(=N)N)C(=O)N[C@H](C(=O)N[C@@H](CC(N)=O)C(=O)O)CSSC[C@H](NC(=O)[C@H](Cc1ccccc1)NC(=O)CN)C(=O)N[C@@H](Cc1c[nH]c3ccccc13)C(=O)N[C@@H](CCCNC(=N)N)C(=O)N[C@@H](C)C(=O)N2 [compound 417] (H-GFCWRACAYRNGKRVCYRRCN-OH; disulfide 3-20, 7-16 (inferred); N-terminus and C-terminus assumed) | 0.05
